Experimental data from publication PMC3723878 (PLoS ONE, 2013).
Changes are numbered by the printed parent chain.

Tests used:
Assay in all cases: Saturation binding of ^125I-HEAT
[1] = target: T1, human α1A-AR F308A variant (Homo sapiens, UniProt P35348, F308A)
T1 construct: expressed in transfected cells; host or cells: COS-7 (transient, calcium phosphate), membranes
T1 sequence (P35348 1-466 F308A): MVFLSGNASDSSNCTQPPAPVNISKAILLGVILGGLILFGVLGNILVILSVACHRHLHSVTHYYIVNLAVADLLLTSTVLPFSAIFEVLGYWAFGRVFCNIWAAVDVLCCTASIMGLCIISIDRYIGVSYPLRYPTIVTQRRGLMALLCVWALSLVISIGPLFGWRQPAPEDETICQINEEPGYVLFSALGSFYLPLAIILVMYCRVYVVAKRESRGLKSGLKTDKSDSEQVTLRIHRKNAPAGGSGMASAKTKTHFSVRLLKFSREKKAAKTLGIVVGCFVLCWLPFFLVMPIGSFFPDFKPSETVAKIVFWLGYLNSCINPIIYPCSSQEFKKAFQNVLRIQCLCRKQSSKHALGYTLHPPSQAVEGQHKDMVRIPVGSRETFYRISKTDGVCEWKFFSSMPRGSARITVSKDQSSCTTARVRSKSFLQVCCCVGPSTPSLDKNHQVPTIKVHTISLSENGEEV

[2] = target: T2, human α1A-AR F86A variant (Homo sapiens, UniProt P35348, F86A); conditions: F86A (2.64), n = 3–6
T2 construct: expressed in transfected cells; host or cells: COS-7, transient (calcium phosphate)
T2 sequence (P35348 1-466 F86A): T1 sequence (P35348 1-466 F308A) with F86A, A308F

[3] = target: T3, human α1A-AR S188A/S192A (SS-AA) variant (Homo sapiens, UniProt P35348, S188A/S192A)
T3 construct: expressed in transfected cells; host or cells: COS-7, transient (calcium phosphate)
T3 sequence (P35348 1-466 S188A/S192A): T1 sequence (P35348 1-466 F308A) with S188A, S192A, A308F

`O=C1c2ccccc2CCC1CNCCc1ccc(O)c([125I])c1` (centres unmarked) [125I-HEAT] was tested, and the “^125I-HEAT Ratio (loss of affinity relative to WT)” value ([1]; F308A) was 2.4, the “^125I-HEAT pKd” value ([1]; F308A (7.35), saturation binding, n = 3–6) was 9.66±0.11 and the “^125I-HEAT pKd” value [2] was 8.68±0.09. The “^125I-HEAT Ratio (loss of affinity relative to WT)” value ([3]; SS-AA) was 0.78 and the “^125I-HEAT pKd” value ([3]; SS-AA (5.42–5.46), saturation binding, n = 3–6) was 10.15±0.01.
